The source of these data is patent US11780840B2 (Incyte Corporation, priority 2020, dated 2023).

Assay [1] has as its target T1, catalytic domain (JH1, amino acids 826-1132) of human JAK2 (Homo sapiens, UniProt O60674).
T1 construct: catalytic domain (JH1, amino acids 826-1132) of human JAK2; FLAG (N); purchased Carna Biosciences 08-445-20N; host or cells: baculovirus expression system
Put plainly: JAK2 LanthaScreen JH1 Binding Assay. The following applies: JAK2 JH1 (1.5 nM), 50 nM fluorescent JAK2-JH1 tracer, 2 hours at 25° C.; read-out: JH1 BIND. The method, boiled down:
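FLAG-tagged, biotinylated JAK2 JH1 (aa 826-1132, baculovirus-expressed; 1.5 nM) incubated 2 h at 25° C with compounds, 50 nM fluorescent tracer and 0.5 nM Streptavidin-Tb in Tris pH 7.5 buffer with MgCl2, Brij-35, BSA, EGTA, glycerol, DTT. Nonspecific binding defined with 2 mM ATP; TR-FRET IC50 from four-parameter fit.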

The target of assay [2] is T2, pseudo-kinase domain (JH2, amino-acids 536-812 with 3 surface mutations W659A, W777A, F794H) of human Wild Type JAK2 (Homo sapiens, UniProt O60674, F794H/W659A/W777A).
T2 construct: pseudo-kinase domain (JH2, amino-acids 536-812 with 3 surface mutations W659A, W777A, F794H); His (C); Avi (biotinylated) (C); purchased BPS Bioscience 79463; host or cells: baculovirus expression system
T2 sequence (O60674 536-812 W659A/W777A/F794H): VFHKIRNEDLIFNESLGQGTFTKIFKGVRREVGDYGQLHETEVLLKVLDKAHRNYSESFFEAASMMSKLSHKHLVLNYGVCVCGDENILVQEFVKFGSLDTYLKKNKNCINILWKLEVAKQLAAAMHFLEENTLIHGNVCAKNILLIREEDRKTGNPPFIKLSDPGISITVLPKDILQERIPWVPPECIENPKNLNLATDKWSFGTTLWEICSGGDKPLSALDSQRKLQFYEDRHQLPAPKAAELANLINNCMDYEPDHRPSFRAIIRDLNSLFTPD
Put plainly: JAK2 LanthaScreen JH2-WT Binding Assay. The following applies: JAK2 JH2-WT (0.145 nM), 50 nM Fluorescent JAK2-JH2 Tracer, 1 hour at 25° C.; read-out: JH2 BIND WT. The method, boiled down: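 IC50 values derive from four-parameter fits of LanthaScreen signal, measuring displacement of 50 nM fluorescent tracer from 0.145 nM biotinylated, baculovirus-expressed JH2 (536-812) detected by 0.25 nM streptavidin-Tb. Incubation lasts 1 hour at 25° C, pH 7.5.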
(Time-resolved FRET reads energy transfer from a long-lived donor to a nearby acceptor.)

In assay [3] the target is T3, pseudo-kinase domain (JH2, amino-acids 536-812 with 3 surface mutations W659A, W777A, F794H) of human V617F mutant JAK2 (Homo sapiens, UniProt O60674, F794H/V617F/W659A/W777A).
T3 construct: pseudo-kinase domain (JH2, amino-acids 536-812 with 3 surface mutations W659A, W777A, F794H); His (C); Avi (biotinylated) (C); purchased BPS Bioscience 79498; host or cells: baculovirus expression system
T3 sequence (O60674 536-812 V617F/W659A/W777A/F794H): as the sequence (O60674 536-812 W659A/W777A/F794H) above, with V82F counted along it
Put plainly: JAK2 LanthaScreen JH2-V617F Binding Assay. The following applies: JAK2 JH2-V617F (0.26 nM), 50 nM Fluorescent JAK2-JH2 Tracer, 1 hour at 25° C.; read-out: JH2 BIND V617F. The method, boiled down:
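Biotinylated His-Avi-tagged JH2 protein was baculovirus-expressed and used at 0.26 nM. It was incubated with compound, 50 nM fluorescent JH2 tracer and 0.25 nM streptavidin-Tb for 1 h at 25 °C in pH 7.5 Tris buffer with MgCl2, BSA, DTT. Non-specific binding was defined with 2 mM ATP. IC50 came from four-parameter fits of TR-FRET signal.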

T1 sequence (O60674 826-1132): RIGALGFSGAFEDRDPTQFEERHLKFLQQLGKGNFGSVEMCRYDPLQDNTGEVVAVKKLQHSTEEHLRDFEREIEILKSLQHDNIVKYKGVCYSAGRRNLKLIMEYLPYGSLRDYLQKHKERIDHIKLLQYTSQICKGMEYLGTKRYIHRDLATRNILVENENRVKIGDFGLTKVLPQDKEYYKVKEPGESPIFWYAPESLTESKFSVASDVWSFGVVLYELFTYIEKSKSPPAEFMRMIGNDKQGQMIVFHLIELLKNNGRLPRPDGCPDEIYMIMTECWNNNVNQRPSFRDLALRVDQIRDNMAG

On to `CCOC(=O)N[C@H]1C[C@@H](n2c(=O)n(C)c3cnc4[nH]c(-c5cnn(C)c5)c(-c5ccc(OC)cc5)c4c32)C1` [Example 106, Ethyl ((1S,3S)-3-(8-(4-methoxyphenyl)-3-methyl-7-(1-methyl-1H-pyrazol-4-yl)-2-oxo-3,6-dihydroimidazo[4,5-d]pyrrolo[2,3-b]pyridin-1(2H)-yl)cyclobutyl)carbamate], for which the IC50 in assay [1] is greater than 1000 nM; in assay [2] it was no more than 10 nM; in assay [3], no more than 10 nM.

For the compound `Cn1ncc2cc(-c3c(-c4ccncc4)[nH]c4ncc5c(c34)n(C3CCCC3)c(=O)n5C)ccc21` [Example 60, 1-Cyclopentyl-3-methyl-8-(1-methyl-1H-indazol-5-yl)-7-(pyridin-4-yl)-3,6-dihydroimidazo[4,5-d]pyrrolo[2,3-b]pyridin-2(1H)-one], the IC50 was greater than 1000 nM in assay [1], no more than 10 nM in assay [2] and no more than 10 nM in assay [3].

Turning to `Cn1c(=O)n(C2CCCC2)c2c3c(-c4ccc(C5(C#N)CC5)cc4)c(-c4cnn(CS(C)(=O)=O)c4)[nH]c3ncc21` [Example 31, 1-(4-(1-Cyclopentyl-3-methyl-7-(1-((methylsulfonyl)methyl)-1H-pyrazol-4-yl)-2-oxo-1,2,3,6-tetrahydroimidazo [4,5-d]pyrrolo[2,3-b]pyridin-8-yl)phenyl)cyclo-propane-1-carbonitrile], the IC50 in assay [1] was 100 to 500 nM; in assay [2] it was no more than 10 nM; in assay [3], no more than 10 nM.

On to `CC(C)n1c(=O)n(C)c2cnc3[nH]c(-c4cnn(CC(C)(C)O)c4)c(-c4ccn5cncc5c4)c3c21` [Example 85, 7-(1-(2-Hydroxy-2-methylpropyl)-1H-pyrazol-4-yl)-8-(imidazo[1,5-a]pyridin-7-yl)-1-isopropyl-3-methyl-3,6-dihydroimidazo[4,5-d]pyrrolo[2,3-b]pyridin-2(1H)-one], for which the IC50 was greater than 1000 nM in assay [1], no more than 10 nM in assay [2] and 10 to 100 nM in assay [3].

In the case of `CCOC(=O)N[C@H]1C[C@@H](n2c(=O)n(C)c3cnc4[nH]c(-c5cnn(C)c5)c(-c5ccc(C#N)cc5)c4c32)C1` [Example 105, Ethyl ((1S,3S)-3-(8-(4-cyanophenyl)-3-methyl-7-(1-methyl-1H-pyrazol-4-yl)-2-oxo-3,6-dihydroimidazo[4,5-d]pyrrolo[2,3-b]pyridin-1(2H)-yl)cyclobutyl)carbamate], the results for the IC50 in assay [1], in assay [2] and in assay [3] were greater than 1000 nM, no more than 10 nM and no more than 10 nM, respectively.

On to `CCn1c(=O)n(C2CCCC2)c2c3cc(-c4ccc(CN5CCC(S(C)(=O)=O)CC5)cc4)[nH]c3ncc21` [Example 13, 1-Cyclopentyl-3-ethyl-7-(4-((4-(methylsulfonyl)piperidin-1-yl)methyl)phenyl)-3,6-dihydroimidazo[4,5-d]pyrrolo[2,3-b] pyridin-2(1H)-one], for which the IC50 in assay [1] is 100 to 500 nM; in assay [2], greater than 1000 nM; in assay [3] it was greater than 1000 nM.

With `COc1ccc(-n2c(=O)n(C)c3cnc4[nH]c(-c5ccc(CN6CCC(S(C)(=O)=O)CC6)cc5)cc4c32)cc1` [Example 2, 1-(4-Methoxyphenyl)-3-methyl-7-(4-((4-(methylsulfonyl)piperidin-1-yl)methyl)phenyl)-3,6-dihydroimidazo[4,5-d]pyrrolo[2,3-b] pyridin-2(1H)-one], the values for the IC50 in assay [1], in assay [2] and in assay [3] were 10 to 100 nM, 10 to 100 nM and 100 to 500 nM, respectively.

Consider `Cn1ncc2cc(-c3c(-c4ccc(OC5CCOCC5)nc4)[nH]c4ncc5c(c34)n(C3CCCC3)c(=O)n5C)ccc21` [Example 66, 1-Cyclopentyl-3-methyl-8-(1-methyl-1H-indazol-5-yl)-7-(6-((tetrahydro-2H-pyran-4-yl)oxy)pyridin-3-yl)-3,6-dihydroimidazo[4,5-d]pyrrolo[2,3-b]pyridin-2(1H)-one], for which the IC50 in assay [1] was greater than 1000 nM; in assay [2] it was 10 to 100 nM; in assay [3] it was 10 to 100 nM.

On to `CCN1CCN(c2ccc(-c3cc4c(ncc5c4n(Cc4cnn(C)c4)c(=O)n5C)[nH]3)cc2)CC1` [Example 16, 7-(4-(4-Ethylpiperazin-1-yl)phenyl)-3-methyl-1-((1-methyl-1H-pyrazol-4-yl)methyl)-3,6-dihydroimidazo[4,5-d]pyrrolo[2,3-b]pyridin-2(1H)-one], for which the results for the IC50 in assay [1], in assay [2] and in assay [3] were 500 to 1000 nM, greater than 1000 nM and greater than 1000 nM, respectively.

In the case of `COc1ccc(-c2c(-c3ccc(CN4CCC(S(C)(=O)=O)CC4)cc3)[nH]c3ncc4c(c23)n(-c2ccccc2)c(=O)n4C)cc1` [Example 22, 8-(4-Methoxyphenyl)-3-methyl-7-(4-((4-(methylsulfonyl)piperidin-1-yl)methyl)phenyl)-1-phenyl-3,6-dihydroimidazo[4,5-d]pyrrolo[2,3-b]pyridin-2(1H)-one], the IC50 in assay [1] was 100 to 500 nM; in assay [2], 10 to 100 nM; in assay [3], 10 to 100 nM.

Consider `CC(=O)NC1CCC(n2c(=O)n(C)c3cnc4[nH]c(-c5cnn(CC(C)(C)O)c5)c(-c5ccc6c(cnn6C)c5)c4c32)CC1` (stereo not drawn) [Example 74, N-(4-(7-(1-(2-Hydroxy-2-methylpropyl)-1H-pyrazol-4-yl)-3-methyl-8-(1-methyl-1H-indazol-5-yl)-2-oxo-3,6-dihydroimidazo[4,5-d]pyrrolo[2,3-b]pyridin-1(2H)-yl)cyclohexyl) acetamide], for which the IC50 in assay [1] was 500 to 1000 nM; in assay [2], no more than 10 nM; in assay [3], no more than 10 nM.

On to `CC(C)n1c(=O)n(C)c2cnc3[nH]c(-c4ccc(CN5CCC(S(C)(=O)=O)CC5)cc4)c(-c4ccc(C5(C#N)CC5)cc4)c3c21` [Example 26, 1-(4-(1-Isopropyl-3-methyl-7-(4-((4-(methylsulfonyl)piperidin-1-yl)methyl)phenyl)-2-oxo-1,2,3,6-tetrahydroimidazo [4,5-d]pyrrolo[2,3-b]pyridin-8-yl)phenyl) cyclopropane-1-carbonitrile], for which the IC50 is greater than 1000 nM in assay [1], no more than 10 nM in assay [2] and no more than 10 nM in assay [3].

Consider `Cn1cc(-c2[nH]c3ncc4c(c3c2-c2ccc(C#N)cc2)n(C2CCC3(CC2)CN(S(C)(=O)=O)C3)c(=O)n4C)cn1` [Example 112, 4-(3-Methyl-7-(1-methyl-1H-pyrazol-4-yl)-1-(2-(methylsulfonyl)-2-azaspiro[3.5]nonan-7-yl)-2-oxo-1,2,3,6-tetrahydroimidazo[4,5-d]pyrrolo[2,3-b]pyridin-8-yl)benzonitrile], for which the IC50 in assay [1] was 500 to 1000 nM; in assay [2], no more than 10 nM; in assay [3], no more than 10 nM.

As to `CC(C)n1c(=O)n(C)c2cnc3[nH]c(-c4cnn(CC(C)(C)O)c4)c(-c4cnc(N5CCOCC5)s4)c3c21` [Example 76, 7-(1-(2-Hydroxy-2-methylpropyl)-1H-pyrazol-4-yl)-1-isopropyl-3-methyl-8-(2-morpholinothiazol-5-yl)-3,6-dihydroimidazo[4,5-d]pyrrolo[2,3-b]pyridin-2(1H)-one], the IC50 in assay [1] was greater than 1000 nM; in assay [2], 10 to 100 nM; in assay [3], 10 to 100 nM.

For the compound `Cn1ncc2cc(-c3c(-c4cnn(CC(C)(C)O)c4)[nH]c4ncc5c(c34)n(C3CCCC3)c(=O)n5C)ccc21` [Example 47, 1-Cyclopentyl-7-(1-(2-hydroxy-2-methylpropyl)-1H-pyrazol-4-yl)-3-methyl-8-(1-methyl-1H-indazol-5-yl)-3,6-dihydroimidazo[4,5-d]pyrrolo[2,3-b]pyridin-2(1H)-one], the IC50 in assay [1] is 100 to 500 nM; in assay [2], no more than 10 nM; in assay [3] it was no more than 10 nM.
